Results taken from ChEMBL document CHEMBL5532661, “Discovery of a Novel Glucagon-like Peptide-1 (GLP-1) Analogue from Bullfrog and Investigation of Its Potential for Designing GLP-1-Based Multiagonists” (J Med Chem, 2024).
Calls of active or inactive are those of the source. No cut-off for these calls is given here. Numbered stars: 1 amine (or outer) side, 2 acyl side, 3 side chain; on linkers, the order of the positions; unused ones are H or OH. Side chains are listed from the residue outwards. Peptide text beside a SMILES is read from it. * marks the point of attachment. γGlu = O=C(O)[C@H](CCC(=O)[*:2])N[*:1]; Palmitoyl = CCCCCCCCCCCCCCCC(=O)*

Columns and labels:
[1] = test system: Mus musculus; test: Reduction in blood glucose level in non-fasting DIO mouse at 30 nmol/kg, sc treated twice a day measured after 21 days by glucose tolerance test; format: functional, organism-based; conditions: time 21.0 day
[2] = test system: Mus musculus; test: Reduction in feed intake in DIO mouse at 30 nmol/kg, sc treated twice a day measured after 21 days; format: functional, organism-based; conditions: time 21.0 day
[3] = test system: Mus musculus; test: Antihyperglycemic effect in DIO mouse assessed as antihyperglycemic duration by measuring blood glucose at 30 nmol/kg, sc administered twice daily measured after 72 hrs by hypoglycemic duration assay; format: functional, organism-based
[4] = test system: Mus musculus; test: Reduction in total cholesterol in DIO mouse at 30 nmol/kg, sc treated twice a day measured after 21 days; format: functional, organism-based; conditions: time 21.0 day
[5] = test system: Mus musculus; test: Reduction in serum triglyceride in DIO mouse at 30 nmol/kg, sc treated twice a day measured after 21 days; format: functional, organism-based; conditions: time 21.0 day
[6] = test system: Mus musculus; test: Antihyperglycemic effect in DIO mouse assessed as antihyperglycemic duration by measuring blood glucose at 30 nmol/kg, sc measured after 12 to 24 hrs by hypoglycemic duration assay; format: functional, organism-based; conditions: time 12-24 hrs
[7] = test system: Mus musculus; test: Anorexigenic effect in ICR mouse assessed as decrease in food intake at 10 nmol/kg, sc measured upto 72 hrs by acute food intake study; format: functional, organism-based
[8] = test system: Mus musculus; test: Antihyperglycemic effect in DIO mouse assessed as prolonged antihyperglycemic duration by measuring blood glucose at 100 nmol/kg, sc; format: functional, organism-based
[9] = molecular target: T1, Glucagon receptor (Homo sapiens, UniProt P47871); test: Agonist activity at human GCGR expressed in HEK293 cells assessed as cAMP level measured after 60 mins by HTRF based assay; format: functional, cell-based
[10] = test system: Mus musculus; test: Anorexigenic effect in ICR mouse assessed as decrease in food intake at 30 nmol/kg, sc measured at 48 hrs by acute food intake study; format: functional, organism-based
[11] = molecular target: Glucagon receptor (Mus musculus) (UniProt Q61606); test: Agonist activity at mouse GCGR receptor expressed in HEK293 cells assessed as cAMP level measured after 60 mins by HTRF based assay; format: functional, cell-based; conditions: filed as agonist
[12] = molecular target: T2, Glucagon-like peptide 1 receptor (Mus musculus) (UniProt O35659); test: Agonist activity at mouse GLP-1 receptor expressed in HEK293 cells assessed as cAMP level measured after 60 mins by HTRF based assay; format: functional, cell-based; conditions: filed as agonist
T2 sequence (whole entry): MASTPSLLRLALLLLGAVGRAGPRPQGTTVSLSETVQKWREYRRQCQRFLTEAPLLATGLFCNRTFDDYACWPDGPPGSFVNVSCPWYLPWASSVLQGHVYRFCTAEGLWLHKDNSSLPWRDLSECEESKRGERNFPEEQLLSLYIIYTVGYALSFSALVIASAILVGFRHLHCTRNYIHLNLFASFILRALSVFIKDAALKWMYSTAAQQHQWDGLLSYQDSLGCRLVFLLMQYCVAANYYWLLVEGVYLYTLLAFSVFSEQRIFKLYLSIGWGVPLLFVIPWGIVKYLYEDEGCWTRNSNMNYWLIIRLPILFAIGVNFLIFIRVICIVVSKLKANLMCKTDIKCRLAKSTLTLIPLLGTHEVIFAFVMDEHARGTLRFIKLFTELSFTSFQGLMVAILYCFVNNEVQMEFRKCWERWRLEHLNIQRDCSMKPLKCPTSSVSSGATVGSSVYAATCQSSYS

[13] = test system: Mus musculus; test: Reduction in serum AST level in DIO mouse at 30 nmol/kg, sc treated twice a day measured after 21 days; format: functional, organism-based; conditions: time 21.0 day
[14] = molecular target: T1, Glucagon receptor; test: Agonist activity at human GCGR expressed in HEK293 cells assessed as cAMP level by measuring relative percent (glucagon EC50/compound EC50) measured after 60 mins by HTRF based assay relative to glucagon; format: functional, cell-based; conditions: filed as agonist
[15] = test system: Mus musculus; test: Reduction in body weight in DIO mouse at 30 nmol/kg, sc treated twice a day measured after 21 days; format: functional; parameters: scale not given: the % may be the effect or the level left; conditions: time 21 day
[16] = test system: Mus musculus; test: Hypoglycemic effect in ICR mouse treated with 3 g/kg glucose assessed as reduction in blood glucose level at 30 nmol/kg, sc measured upto 120 mins pretreated with GLP-1R antagonist by OGTT; format: functional, organism-based
[17] = test system: Mus musculus; test: Reduction in serum ALT level in DIO mouse at 30 nmol/kg, sc treated twice a day measured after 21 days; format: functional, organism-based; conditions: time 21.0 day
[18] = molecular target: T2, Glucagon-like peptide 1 receptor (Mus musculus); test: Potency index, ratio of GLP-1 EC50 to test compound EC50 for agonist activity at mouse GLP-1 receptor expressed in HEK293 cells assessed as cAMP level measured after 60 mins by HTRF based assay; format: functional, cell-based; conditions: filed as agonist
[19] = molecular target: T3, Glucagon-like peptide 1 receptor (Homo sapiens, UniProt P43220); test: Potency index, ratio of Semaglutide EC50 to test compound EC50 for agonist activity at human GLP-1 receptor expressed in HEK293 cells assessed as cAMP level measured after 60 mins by HTRF based assay; format: functional, cell-based; conditions: filed as agonist
[20] = test system: Mus musculus; test: Reduction in hepatic lipid content in DIO mouse at 30 nmol/kg, sc treated twice a day measured after 21 days by H and E staining based assay; format: functional, organism-based; conditions: time 21.0 day
[21] = test system: Mus musculus; test: Anorexigenic effect in sc dosed ICR mouse assessed as decrease in food intake measured upto 72 hrs by acute food intake study; format: functional, organism-based; conditions: dose 10-100 nmol/kg
[22] = molecular target: T3, Glucagon-like peptide 1 receptor; test: Agonist activity at human GLP-1 receptor expressed in HEK293 cells assessed as cAMP level measured after 60 mins by HTRF based assay; format: functional, cell-based
[23] = test system: Mus musculus; test: Anorexigenic effect in ICR mouse assessed as decrease in food intake at 30 nmol/kg, sc measured upto 72 hrs by acute food intake study; format: functional, organism-based
[24] = test system: Mus musculus; test: Reduction in total fat mass in DIO mouse at 30 nmol/kg, sc treated twice a day measured after 21 days; format: functional, organism-based; conditions: time 21.0 day
[25] = test system: Mus musculus; test: Hypoglycemic effect in ICR mouse treated with 3 g/kg glucose assessed as reduction in blood glucose level at 100 nmol/kg, sc measured upto 120 mins by acute glucose lowering test; format: functional, organism-based
[26] = test system: Mus musculus; test: Hypoglycemic effect in ICR mouse treated with 3 g/kg glucose assessed as reduction in blood glucose level at 10 nmol/kg, sc measured upto 120 mins by acute glucose lowering test; format: functional, organism-based
[27] = molecular target: T1, Glucagon receptor; test: Potency index, ratio of glucagon EC50 to test compound EC50 for agonist activity at human GCGR expressed in HEK293 cells assessed as cAMP level measured after 60 mins by HTRF based assay; format: functional, cell-based; conditions: filed as agonist
[28] = molecular target: T3, Glucagon-like peptide 1 receptor; test: Agonist activity at human GLP-1 receptor expressed in HEK293 cells assessed as cAMP level by measuring relative percent (GLP-1 EC50/compound EC50) measured after 60 mins by HTRF based assay relative to GLP-1; format: functional, cell-based; conditions: filed as agonist

T3 sequence (P43220 whole entry): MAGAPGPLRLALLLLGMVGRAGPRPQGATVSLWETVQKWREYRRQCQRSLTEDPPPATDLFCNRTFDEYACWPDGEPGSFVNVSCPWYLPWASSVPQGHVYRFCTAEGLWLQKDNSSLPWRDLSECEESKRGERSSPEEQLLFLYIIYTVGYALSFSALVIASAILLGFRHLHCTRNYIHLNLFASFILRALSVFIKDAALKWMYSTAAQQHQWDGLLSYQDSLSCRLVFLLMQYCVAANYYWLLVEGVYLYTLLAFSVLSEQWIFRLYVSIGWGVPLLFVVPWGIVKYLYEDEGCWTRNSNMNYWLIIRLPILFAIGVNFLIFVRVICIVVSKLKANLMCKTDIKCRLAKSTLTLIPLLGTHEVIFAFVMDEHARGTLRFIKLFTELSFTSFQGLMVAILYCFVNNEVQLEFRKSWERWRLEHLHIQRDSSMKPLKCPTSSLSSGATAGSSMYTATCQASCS
T1 sequence (P47871 whole entry): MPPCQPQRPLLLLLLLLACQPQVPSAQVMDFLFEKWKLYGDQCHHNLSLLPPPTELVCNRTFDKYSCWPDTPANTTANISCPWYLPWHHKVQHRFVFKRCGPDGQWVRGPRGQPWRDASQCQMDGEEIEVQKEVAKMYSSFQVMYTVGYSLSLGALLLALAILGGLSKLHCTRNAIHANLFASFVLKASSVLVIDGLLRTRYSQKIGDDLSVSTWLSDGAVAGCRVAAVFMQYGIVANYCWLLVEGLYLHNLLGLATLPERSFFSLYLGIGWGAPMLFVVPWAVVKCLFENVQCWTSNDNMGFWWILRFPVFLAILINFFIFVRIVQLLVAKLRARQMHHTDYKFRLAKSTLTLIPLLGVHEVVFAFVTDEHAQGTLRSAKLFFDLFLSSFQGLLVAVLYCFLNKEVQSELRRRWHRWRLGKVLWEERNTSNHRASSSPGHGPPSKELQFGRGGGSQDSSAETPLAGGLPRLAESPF
Sequence of Glucagon receptor (Mus musculus) (Q61606 whole entry): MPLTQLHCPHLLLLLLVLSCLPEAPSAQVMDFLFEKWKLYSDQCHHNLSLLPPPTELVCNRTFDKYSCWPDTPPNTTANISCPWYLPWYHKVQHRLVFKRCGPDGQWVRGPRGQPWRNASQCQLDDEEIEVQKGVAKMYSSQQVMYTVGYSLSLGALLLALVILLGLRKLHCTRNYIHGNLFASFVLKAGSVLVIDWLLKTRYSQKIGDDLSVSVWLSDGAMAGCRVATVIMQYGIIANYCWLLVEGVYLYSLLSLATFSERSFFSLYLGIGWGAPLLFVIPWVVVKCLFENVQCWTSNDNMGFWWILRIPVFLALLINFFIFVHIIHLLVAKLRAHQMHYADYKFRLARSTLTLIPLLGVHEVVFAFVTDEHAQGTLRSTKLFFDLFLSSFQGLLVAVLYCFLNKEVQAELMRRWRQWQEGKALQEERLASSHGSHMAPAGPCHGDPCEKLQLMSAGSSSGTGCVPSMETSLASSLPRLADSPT

CCCCCCCCCCCCCCCC(=O)N[C@@H](CCC(=O)NCCCC[C@H](NC(=O)[C@H](Cc1ccc(O)cc1)NC(=O)[C@H](CCCCN)NC(=O)[C@H](CO)NC(=O)[C@H](CCSC)NC(=O)[C@H](CC(=O)O)NC(=O)[C@H](CO)NC(=O)[C@@H](NC(=O)[C@H](Cc1ccccc1)NC(=O)[C@@H](NC(=O)CNC(=O)[C@H](CCC(N)=O)NC(=O)[C@H](CO)NC(=O)[C@@H](N)Cc1c[nH]cn1)[C@@H](C)O)[C@@H](C)O)C(=O)N[C@@H](CC(=O)O)C(=O)N[C@@H](CO)C(=O)N[C@@H](CCCNC(=N)N)C(=O)N[C@@H](CCCNC(=N)N)C(=O)N[C@@H](C)C(=O)N[C@@H](CCC(N)=O)C(=O)N[C@@H](CC(=O)O)C(=O)N[C@@H](Cc1ccccc1)C(=O)N[C@H](C(=O)N[C@@H](CC(=O)O)C(=O)N[C@@H](Cc1c[nH]c2ccccc12)C(=O)N[C@@H](CC(C)C)C(=O)N[C@@H](CCCCN)C(=O)N[C@@H](CC(N)=O)C(=O)NCC(=O)NCC(=O)N1CCC[C@H]1C(=O)N[C@@H](CO)C(=O)N[C@@H](CO)C(=O)NCC(=O)N[C@@H](C)C(=O)N1CCC[C@H]1C(=O)N1CCC[C@H]1C(=O)N1CCC[C@H]1C(=O)N[C@@H](CO)C(N)=O)C(C)C)C(=O)O (H-HSQGTFTSDMSKYK([γGlu-Palmitoyl])DSRRAQDFVDWLKNGGPSSGAPPPS-NH2)
Activity [1]: Active | Activity [2]: Active | Activity [3]: Active | Activity [4]: Active | Activity [5]: Active | Activity [6]: Active | Activity [7]: Active | Activity [8]: Active | EC50 [9]: 0.027 nM | Activity [10]: Active | Activity [11]: Active | Activity [12]: Active | Activity [13]: Active | Activity [14]: 341% | Activity [15]: 30.6% | Activity [16]: inactive | Activity [17]: Active | Ratio EC50 [18]: 3 | Ratio EC50 [19]: 3 | Activity [20]: Active | Activity [21]: Dose-Dependent Effect | EC50 [22]: 0.011 nM | Activity [23]: Active | Activity [24]: Active | Activity [25]: Active | Activity [26]: Active | Ratio EC50 [27]: 3 | Activity [28]: 482%
